# Test results published in BindingDB's records for doi:10.7270/Q2BZ64GK (Burnham Center For Chemical Genomics, 2009).
# Target: T1, Tyrosine-protein phosphatase non-receptor type 22 (Homo sapiens, UniProt Q9Y2R2)
# T1 sequence (Q9Y2R2 whole entry): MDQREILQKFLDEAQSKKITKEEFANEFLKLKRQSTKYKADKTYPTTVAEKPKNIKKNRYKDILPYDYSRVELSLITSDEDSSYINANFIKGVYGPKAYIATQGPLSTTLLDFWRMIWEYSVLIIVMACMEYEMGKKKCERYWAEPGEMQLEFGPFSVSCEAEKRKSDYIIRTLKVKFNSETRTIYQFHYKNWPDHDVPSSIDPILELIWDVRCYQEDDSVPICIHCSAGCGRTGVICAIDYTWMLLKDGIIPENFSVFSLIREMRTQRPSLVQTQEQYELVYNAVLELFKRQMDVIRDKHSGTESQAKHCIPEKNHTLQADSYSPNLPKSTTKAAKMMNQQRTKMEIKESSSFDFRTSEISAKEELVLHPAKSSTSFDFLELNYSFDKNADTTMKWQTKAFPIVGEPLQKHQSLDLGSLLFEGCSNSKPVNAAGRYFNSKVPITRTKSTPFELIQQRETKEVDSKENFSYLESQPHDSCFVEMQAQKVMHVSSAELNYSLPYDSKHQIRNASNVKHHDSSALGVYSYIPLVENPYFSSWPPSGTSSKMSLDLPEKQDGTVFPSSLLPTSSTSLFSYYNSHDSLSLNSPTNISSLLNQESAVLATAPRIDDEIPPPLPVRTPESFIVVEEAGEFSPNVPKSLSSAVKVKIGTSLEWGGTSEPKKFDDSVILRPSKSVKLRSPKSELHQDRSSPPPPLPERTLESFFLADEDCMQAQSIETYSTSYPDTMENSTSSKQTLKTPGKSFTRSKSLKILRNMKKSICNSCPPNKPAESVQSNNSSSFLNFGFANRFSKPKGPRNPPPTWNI
# Test: PubChem AID 2135
smiles,measurement,value
"CCOc1ccc2nc(NC(=O)CSc3cc(O)c4c(C)c(C)sc4n3)sc2c1 [2-[(2,3-dimethyl-4-oxidanylidene-5H-thieno[2,3-b]pyridin-6-yl)sulfanyl]-N-(6-ethoxy-1,3-benzothiazol-2-yl)ethanamide]",IC50,> 100 µM
